Tested on: grass and broad leaf
Assay: Grass and broad leaf kill, cocktails compared against glyphosate (5%)
Type: in vivo
Source text: This cocktail can be mixed with water prior to use at 1:5 parts of water to 1:200 parts of water. The higher the concentration of the cocktail the faster the kill of the weeds. Cocktail I was compared against glyphosate (5%).
Compared against Glyphosate at 5%:
Same as Cocktail I but add concentrated glyphosate to yield 1% glyphosate in mix.

## O=C(O)CNCP(=O)(O)O [Glyphosate, N-(phosphonomethyl) glycine]
24 hours, Cocktail I vs glyphosate at 5%
  Grass and broad leaf kill, 24 hours: 10%
24 hours, Cocktail II vs glyphosate at 5%
  Broad leaf and grass kill, 24 hours: 10%
24 hours, Cocktail III (1% glyphosate in mix) vs glyphosate at 5%
  Broad leaf and grass kill, 24 hours: 10%
Cocktail II vs glyphosate at 5%
  Broad leaf and grass kill, 2 days: 20%
Cocktail III (1% glyphosate in mix) vs glyphosate at 5%
  Broad leaf and grass kill, 2 days: 20%
7 days, Cocktail I vs glyphosate at 5%
  Grass and broad leaf kill, 7 days: 100%
7 days, Cocktail II vs glyphosate at 5%
  Broad leaf and grass kill, 7 days: 100%
7 days, Cocktail III (1% glyphosate in mix) vs glyphosate at 5%
  Broad leaf and grass kill, 7 days: 100%
